Source: the supplement of paper PMC10307832

Assays:
Assay in all cases: relative viability (nuclei count vs DMSO), 5 days (fraction); higher = more cells survive
[1] = compound: Cc1nc(Nc2ncc(C(=O)Nc3c(C)cccc3Cl)s2)cc(N2CCN(CCO)CC2)n1 [Dasatinib] + O=C(c1cc(Cc2n[nH]c(=O)c3ccccc23)ccc1F)N1CCN(C(=O)C2CC2)CC1 [Olaparib] (partner 8 µM)
Procedure, shortened: (§1)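 For relative viability, nuclei counts in treated wells were divided by those in vehicle wells. Lung cancer cell lines had been pin-tool dosed in 1536-well plates the day after seeding and cultured for 5 days, then fixed and stained in one step (final 0.05% Triton X-100, 1% formaldehyde, 1 ug/ml Hoechst) and imaged at 4×. Doses were one drug alone or a fixed anchor-drug dose plus five library-drug doses (not always all listed) in √10 steps, and values are duplicate-plate medians.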

[2] = compound: C1CC1C(=O)NC2=NNC3=C2C=CC(=C3)C4=CC(=CC=C4)C(=O)NC5CC5 [XMD13-2] + C[C@@H](Oc1cc(-c2cnn(C3CCNCC3)c2)cnc1N)c1c(Cl)ccc(F)c1Cl [Crizotinib] (partner 1 µM)
Procedure, shortened: as §1

[3] = compound: C1CC1C(=O)NC2=NNC3=C2C=CC(=C3)C4=CC(=CC=C4)C(=O)NC5CC5 [XMD13-2] + CS(=O)(=O)N1CCN(Cc2cc3nc(-c4cccc5[nH]ncc45)nc(N4CCOCC4)c3s2)CC1 [Pictilisib] (partner 1 µM)
Procedure, shortened: as §1

[4] = compound: Cc1nc(Nc2ncc(C(=O)Nc3c(C)cccc3Cl)s2)cc(N2CCN(CCO)CC2)n1 [Dasatinib] + C[C@@H](Oc1cc(-c2cnn(C3CCNCC3)c2)cnc1N)c1c(Cl)ccc(F)c1Cl [Crizotinib] (partner 1 µM)
Procedure, shortened: as §1

Cell Line | relative viability ([1]; first compound 0.005 µM) | relative viability ([1]; first compound 0.01581 µM) | relative viability ([1]; first compound 0.05 µM) | relative viability ([1]; first compound 0.1581 µM) | relative viability ([1]; first compound 0.5 µM) | relative viability ([2]; first compound 0.05 µM) | relative viability ([2]; first compound 0.1581 µM) | relative viability ([2]; first compound 0.5 µM) | relative viability ([2]; first compound 1.581 µM) | relative viability ([2]; first compound 5 µM) | relative viability ([3]; first compound 0.05 µM) | relative viability ([3]; first compound 0.1581 µM) | relative viability ([3]; first compound 0.5 µM) | relative viability ([3]; first compound 1.581 µM) | relative viability ([3]; first compound 5 µM) | relative viability ([4]; first compound 0.005 µM) | relative viability ([4]; first compound 0.01581 µM) | relative viability ([4]; first compound 0.05 µM) | relative viability ([4]; first compound 0.1581 µM) | relative viability ([4]; first compound 0.5 µM)
NCI-H2023 | 0.43 | 0.456 | 0.377 | 0.378 | 0.379 | 0.738 | 0.592 | 0.62 | 0.556 | 0.809 | 0.318 | 0.244 | 0.219 | 0.24 | 0.225 | 0.491 | 0.492 | 0.376 | 0.281 | 0.26
EBC-1 | 0.803 | 0.619 | 0.612 | 0.613 | 0.602 | 0.225 | 0.208 | 0.204 | 0.178 | 0.199 | 0.395 | 0.431 | 0.377 | 0.287 | 0.142 | 0.203 | 0.187 | 0.205 | 0.183 | 0.172
NCI-H1666 | 0.756 | 0.752 | 0.73 | 0.782 | 0.676 | 0.832 | 0.989 | 1.09 | 0.971 | 0.855 | 0.566 | 0.479 | 0.59 | 0.349 | 0.492 | 1.01 | 0.878 | 0.783 | 0.561 | 0.247
NCI-H1975 | 0.707 | 0.723 | 0.706 | 0.448 | 0.216 | 1.21 | 1.02 | 0.91 | 0.954 | 1.14 | 0.319 | 0.3 | 0.333 | 0.322 | 0.325 | 0.858 | 0.852 | 0.612 | 0.404 | 0.272
NCI-H2170 | 0.585 | 0.572 | 0.525 | 0.427 | 0.263 | 1.27 | 1.17 | 1.34 | 1.19 | 1.16 | 0.349 | 0.33 | 0.338 | 0.275 | 0.247 | 1.1 | 0.94 | 0.84 | 0.547 | 0.523
NCI-H1355 | 0.747 | 0.541 | 0.73 | 0.582 | 0.442 | 1.07 | 1.12 | 1.09 | 1.01 | 0.941 | 0.45 | 0.406 | 0.415 | 0.496 | 0.366 | 1.04 | 0.781 | 0.983 | 0.585 | 0.443
NCI-H1648 | 0.73 | 0.612 | 0.855 | 0.314 | 0.221 | – | – | – | – | – | – | – | – | – | – | – | – | – | – | –
A549 | 0.312 | 0.306 | 0.269 | 0.308 | 0.116 | 0.994 | 0.736 | 0.721 | 0.664 | 0.824 | 0.677 | 0.508 | 0.565 | 0.477 | 0.504 | 0.563 | 0.642 | 0.415 | 0.264 | 0.131
SK-MES-1 | 0.766 | 0.794 | 0.56 | 0.214 | 0.151 | 1.14 | 1.06 | 1.04 | 0.93 | 1.02 | 0.408 | 0.422 | 0.333 | 0.365 | 0.349 | 0.968 | 0.937 | 0.93 | 0.372 | 0.212
EKVX | 0.852 | 0.669 | 0.676 | 0.338 | 0.189 | 1.05 | 1.21 | 1.06 | 0.977 | 1.12 | 0.476 | 0.401 | 0.434 | 0.42 | 0.388 | 0.994 | 0.633 | 0.528 | 0.314 | 0.138
RERF-LC-KJ | 0.906 | 0.836 | 0.87 | 0.788 | 0.816 | 0.865 | 0.85 | 0.816 | 0.771 | 0.801 | 0.57 | 0.558 | 0.435 | 0.571 | 0.5 | 0.839 | 0.977 | 0.832 | 0.75 | 0.764
NCI-H1755 | 0.806 | 0.577 | 0.68 | 0.408 | 0.279 | 0.982 | 0.85 | 0.861 | 0.856 | 0.922 | 0.548 | 0.411 | 0.48 | 0.315 | 0.496 | 0.696 | 0.657 | 0.365 | 0.202 | 0.174
NCI-H661 | 0.731 | 0.792 | 0.747 | 0.618 | 0.592 | 0.985 | 1.02 | 0.864 | 0.887 | 0.875 | 0.469 | 0.529 | 0.421 | 0.344 | 0.383 | 1.08 | 1.19 | 0.972 | 0.8 | 0.547
LOU-NH91 | 0.925 | 0.807 | 0.726 | 0.615 | 0.372 | 0.791 | 0.659 | 0.769 | 0.727 | 0.782 | 0.565 | 0.506 | 0.524 | 0.494 | 0.511 | 0.777 | 0.658 | 0.691 | 0.498 | 0.354
LXF-289 | 1.07 | 1.02 | 0.925 | 0.268 | 0.158 | 0.863 | 0.831 | 0.473 | 0.789 | 0.811 | 0.941 | 0.728 | 0.806 | 0.714 | 0.642 | 0.849 | 0.912 | 0.857 | 0.197 | 0.136
HCC-44 | 1.03 | 0.958 | 1.11 | 1.13 | 0.986 | 0.789 | 0.814 | 0.75 | 0.772 | 0.755 | 0.665 | 0.597 | 0.609 | 0.533 | 0.571 | 0.86 | 0.904 | 0.945 | 0.36 | 0.213
HARA | 0.822 | 0.625 | 0.517 | 0.186 | 0.188 | 1.2 | 1.05 | 1.13 | 1.1 | 0.486 | 0.372 | 0.394 | 0.493 | 0.314 | 0.23 | 1.08 | 0.754 | 0.71 | 0.261 | 0.133
